In brackets after ≈: the same amount, converted by molar mass.
System: not listed separately
Assay: Cytotoxicity against mouse Hepa1c1c7 cells incubated for 24 hrs by MTT assay
Type: functional, cell-based
Details: Hepa-1c1c7, 24 h
C=C1CC[C@H]2[C@](C)(CC[C@H](OC(C)=O)C(C)(C)O)[C@@H](OC(C)=O)CC[C@]2(CO)[C@H]1CO gave an IC50 greater than 50 µM. For C=C1CC[C@H]2[C@](C)(CC[C@H](O)C(C)(C)O)CCC[C@]2(COC(C)=O)[C@H]1CO, the IC50 was greater than 50 µM. C=C1CC[C@H]2[C@](C)(CC[C@H](O)C(C)(C)O)CCC[C@]2(CO)[C@H]1CO gave an IC50 greater than 50 µM. For COC(=O)C1=CO[C@H]2OC(=O)[C@H]3[C@H]2[C@H]1[C@@H]1[C@H](C[C@H]3OC(C)=O)C1(C)C, the IC50 was greater than 50 µM. In the case of C=C1CC[C@H]2[C@](C)(CC[C@H](O)C(C)(C)O)[C@@H](OC(C)=O)CC[C@]2(CO)[C@H]1CO, the IC50 is reported as greater than 50 µM. In the case of C=C1C[C@H](O)[C@@H]2C3(CCC[C@@]2(C)CCC=C(C)C)[C@H](O)OC[C@@H]13 (some centres undefined), the IC50 is reported as greater than 50 µM. In the case of CC(=O)O[C@H]1CC[C@@]23CO[C@](C)(CC[C@H]2[C@]1(C)CC[C@H](O)C(C)(C)O)[C@@H]3CO, the IC50 is reported as greater than 50 µM. C=C1CC[C@H]2[C@](C)(CC[C@H](OC(C)=O)C(C)(C)O)CCC[C@]2(CO)[C@H]1CO gave an IC50 greater than 50 µM.

System: Candida albicans
Assay: Antifungal activity against Candida albicans DSY654 harboring CDR1-CDR2 double mutant assessed as inhibition of fungal growth incubated for 24 hrs by alamar blue assay
Type: functional
Details: not given
With COC(=O)C1=CO[C@H]2OC(=O)[C@H]3[C@H]2[C@H]1[C@@H]1[C@H](C[C@H]3OC(C)=O)C1(C)C the MIC was 16 µg/mL (≈ 45.7 µM).

Source: ChEMBL document CHEMBL5335828, “Sacculatane Diterpenoids from the Liverwort Plagiochila nitens Collected in China” (J Nat Prod, 2024)
